# Laboratory results from patent US20250144067A1, “PERSONALIZED STARVATION THERAPY FOR CANCER” (Faeth Therapeutics, Inc., priority 2021, published 2025).
# Structures can show the parent of a compound that is named as a salt.
# Legend:
# [1] = test system: NCI-H292 lung cancer cells; experiment: FDA drug screening, complete media vs cholesterol-free media without statin (TABLE 1); type: cell-based, human
# [2] = test system: NCI-H292 lung cancer cells; experiment: FDA drug screening, complete media vs cholesterol-free media with simvastatin (TABLE 2); type: cell-based, human; settings: for Cholesterol-free media + simvastatin (0.04 μM) / Complete Media: NCI-H292 cells
# [3] = NCI-H292 cells, cholesterol-free media without statin
# [4] = complete vs cholesterol-free media, greater than 0 enhanced anti-cancer activity, about 0 neutral, below 0 antagonists
# [5] = FDA drug library screen, cholesterol-free media with simvastatin 0.04 μM
# [6] = FDA drug library screen, complete media
# [7] = complete media minus cholesterol-free media + simvastatin, >0 enhanced anti-cancer activity, about 0 neutral, <0 antagonist
# [8] = complete vs cholesterol-free media, […]
# [9] = cholesterol-free media with simvastatin 0.04 μM, cell growth value in FDA drug screen
# [10] = complete media, cell growth value in FDA drug screen
# [11] = NCI-H292 cells, FDA drug library screen, cholesterol-free media without statin
# [12] = NCI-H292 cells, FDA drug library screen, complete media
# [13] = NCI-H292 cells, cholesterol-free media without statin, FDA drug library screen
# [14] = NCI-H292 cells, complete media, FDA drug library screen
# [15] = complete vs cholesterol-free media, >0 enhanced anti-cancer activity, about 0 neutral, <0 antagonist
# [16] = cholesterol-free media with simvastatin 0.04 μM, FDA drug library screen (TABLE 2)
# [17] = complete media, FDA drug library screen (TABLE 2)
# [18] = complete media minus cholesterol-free media + simvastatin (0.04 μM), >0 enhanced anti-cancer activity, about 0 neutral, <0 antagonist
# [19] = FDA library drug in cholesterol-free media with simvastatin 0.04 μM
# [20] = FDA library drug in complete media
# [21] = complete media vs cholesterol-free media + simvastatin (0.04 μM), >0 enhanced anti-cancer activity, about 0 neutral, <0 antagonist
# [22] = Complete minus Cholesterol-free, greater than 0 enhanced anti-cancer activity, about 0 neutral, below 0 antagonist
# [23] = drug in cholesterol-free media with simvastatin 0.04 μM
# [24] = Complete minus Cholesterol-free, >0 enhanced anti-cancer activity, about 0 neutral, <0 antagonist
compound,measurement,setting,value
CNCCC(Oc1ccc(C(F)(F)F)cc1)c1ccccc1 (stereo not shown) [Fluoxetine (hydrochloride)],Cholesterol-free,[1]; [3],1.383
same,Complete,"[1]; NCI-H292 cells, complete media",0.9864
same,Difference,[1]; [4],−0.40
same,Cholesterol-free media + simvastatin (0.04 μM),[2]; [5],0.8887
same,Complete Media,[2]; [6],1.043
same,Difference,[2]; [7],0.15
CNc1ncc(-c2ccc3c(=O)c(C(=O)O)cn(C4CC4)c3c2C)cc1C [Ozenoxacin],Cholesterol-free,[1]; [3],1.08
same,Complete,"[1]; NCI-H292 cells, complete media",0.7589
same,Difference,[1]; [8],−0.32
same,Cholesterol-free media + simvastatin (0.04 μM),[2]; [5],0.8626
same,Complete Media,[2]; [6],0.762
same,Difference,"[2]; complete media vs cholesterol-free media + simvastatin (0.04 μM), […]",−0.10
NCCCC(O)(P(=O)(O)O)P(=O)(O)O [Alendronic acid],Cholesterol-free,[1]; [3],1.207
same,Complete,"[1]; NCI-H292 cells, complete media",0.7802
same,Difference,[1]; [4],−0.43
same,Cholesterol-free media + simvastatin (0.04 μM),[2]; [9],0.8926
same,Complete Media,[2]; [10],0.9547
same,Difference,[2]; [7],0.06
O=C([O-])CCSC[C@H]1O[C@@H]2O[C@H]3[C@H](O)[C@@H](O)[C@@H](O[C@H]4[C@H](O)[C@@H](O)[C@@H](O[C@H]5[C@H](O)[C@@H](O)[C@@H](O[C@H]6[C@H](O)[C@@H](O)[C@@H](O[C@H]7[C@H](O)[C@@H](O)[C@@H](O[C@H]8[C@H](O)[C@@H](O)[C@@H](O[C@H]9[C@H](O)C(O)[C@@H](O[C@H]1[C@H](O)[C@H]2O)O[C@@H]9CSCCC(=O)[O-])O[C@@H]8CSCCC(=O)[O-])O[C@@H]7CSCCC(=O)[O-])O[C@@H]6CSCCC(=O)[O-])O[C@@H]5CSCCC(=O)[O-])O[C@@H]4CSCCC(=O)[O-])O[C@@H]3CSCCC(=O)[O-].[Na+].[Na+].[Na+].[Na+].[Na+].[Na+].[Na+].[Na+] (stereo partly shown) [Sugammadex (sodium)],Difference,"[1]; Complete minus Cholesterol-free, […]",−0.11
same,Cholesterol-free,[1]; [11],1.596
same,Complete,[1]; [12],1.487
same,Cholesterol-free media + simvastatin (0.04 μM),"[2]; cholesterol-free media with simvastatin 0.04 μM, […]",0.9061
same,Complete Media,"[2]; complete media, […]",0.9946
same,Difference,"[2]; complete media minus cholesterol-free media + simvastatin, […]",0.09
[H]/N=C(\N/C(=N/[H])NCCCCCCNC(=N)NC(=N)Nc1ccc(Cl)cc1)Nc1ccc(Cl)cc1 [Chlorhexidine (digluconate)],Cholesterol-free,[1]; [13],0.8244
same,Complete,[1]; [14],0.943
same,Difference,[1]; [15],0.12
same,Cholesterol-free media + simvastatin (0.04 μM),[2]; [16],1.008
same,Complete Media,[2]; [17],0.9694
same,Difference,[2]; [18],−0.04
CN/C(=N/CCSCc1nc[nH]c1C)NC#N [Cimetidine],Difference,"[1]; Complete minus Cholesterol-free, greater than 0 enhanced anti-cancer activity, about 0 neutral, below 0 antagonists",−0.70
same,Cholesterol-free,[1]; NCI-H292 cells in cholesterol-free media without statin,1.504
same,Complete,[1]; NCI-H292 cells in complete media,0.8083
same,Cholesterol-free media + simvastatin (0.04 μM),[2]; [19],1.358
same,Complete Media,[2]; [20],0.952
same,Difference,[2]; [21],−0.41
OCC(O)CO [Glycerol],Cholesterol-free,[1]; [13],0.984
same,Complete,[1]; [14],1.096
same,Difference,[1]; [15],0.11
same,Cholesterol-free media + simvastatin (0.04 μM),[2]; [16],1.066
same,Complete Media,[2]; [17],1.039
same,Difference,[2]; [18],−0.03
CC(=O)Oc1cccc2c1C(=O)c1c(OC(C)=O)cc(C(=O)O)cc1C2=O [Diacerein],Difference,[1]; [22],−0.13
same,Cholesterol-free,[1]; [11],1.078
same,Complete,[1]; [12],0.9444
same,Cholesterol-free media + simvastatin (0.04 μM),[2]; [23],1.08
same,Complete Media,[2]; drug in complete media,0.9105
same,Difference,[2]; [21],−0.17
Catechin,Complete,"[1]; NCI-H292 cells, complete media",0.7264
same,Difference,[1]; [8],−0.38
same,Cholesterol-free media + simvastatin (0.04 μM),[2]; [16],1.661
same,Difference,"[2]; complete media minus cholesterol-free media + simvastatin (0.04 μM), […]",−0.02
C[N+](C)(C)CCOP(=O)([O-])OC[C@H](O)CO [sn-Glycero-3-phosphocholine],Difference,[1]; [22],−0.10
same,Cholesterol-free,[1]; [11],0.9108
same,Complete,[1]; [12],0.8124
same,Cholesterol-free media + simvastatin (0.04 μM),[2]; [19],0.9593
same,Complete Media,[2]; [20],0.5999
same,Difference,[2]; [21],−0.36
CC(=O)Nc1cccc(-n2c(=O)n(C3CC3)c(=O)c3c(Nc4ccc(I)cc4F)n(C)c(=O)c(C)c32)c1 [Trametinib],Difference,[1]; [24],−0.06
same,Cholesterol-free,[1]; [13],0.4164
same,Complete,[1]; [14],0.3595
same,Cholesterol-free media + simvastatin (0.04 μM),[2]; [9],0.2423
same,Complete Media,[2]; [10],0.2586
same,Difference,[2]; [7],0.02
COc1ccc2cccc(CCNC(C)=O)c2c1 [Agomelatine],Cholesterol-free,[1]; [13],0.6611
same,Complete,[1]; [14],0.8138
same,Difference,[1]; [15],0.15
same,Cholesterol-free media + simvastatin (0.04 μM),[2]; [19],1.184
same,Complete Media,[2]; [20],0.8914
same,Difference,[2]; [21],−0.29
N[C@@H](Cc1cc(I)c(Oc2ccc(O)c(I)c2)c(I)c1)C(=O)O [Liothyronine (sodium)],Cholesterol-free,[1]; [3],1.224
same,Complete,"[1]; NCI-H292 cells, complete media",0.9078
same,Difference,[1]; [4],−0.32
same,Cholesterol-free media + simvastatin (0.04 μM),[2]; [23],1.302
same,Complete Media,[2]; drug in complete media,1.113
same,Difference,[2]; [21],−0.19
NC(=O)C(c1ccccc1)(c1ccccc1)[C@@H]1CCN(CCc2ccc3c(c2)CCO3)C1 [Darifenacin (hydrobromide)],Difference,[1]; [22],−0.11
same,Cholesterol-free,[1]; [11],1.186
same,Complete,[1]; [12],1.075
same,Cholesterol-free media + simvastatin (0.04 μM),[2]; [5],1.197
same,Complete Media,[2]; [6],1.073
same,Difference,[2]; [21],−0.12
CC(=O)Oc1c(C)cc(OCC(O)CNC(C)C)c(C)c1C (stereo not shown) [Metipranolol hydrochloride],Difference,[1]; [24],0.05
same,Cholesterol-free,[1]; [13],0.8441
same,Complete,[1]; [14],0.893
same,Cholesterol-free media + simvastatin (0.04 μM),[2]; [9],0.8039
same,Complete Media,[2]; [10],0.8617
same,Difference,[2]; [7],0.06
CO[C@H]1/C=C/O[C@@]2(C)Oc3c(C)c(O)c4c(O)c(c(/C=N/N5CCN(C)CC5)c(O)c4c3C2=O)NC(=O)/C(C)=C\C=C\[C@H](C)[C@H](O)[C@@H](C)[C@@H](O)[C@@H](C)[C@H](OC(C)=O)[C@@H]1C [Rifampicin],Cholesterol-free,[1]; [13],0.7396
same,Complete,[1]; [14],1.143
same,Difference,[1]; [15],0.40
same,Cholesterol-free media + simvastatin (0.04 μM),[2]; [19],1.219
same,Complete Media,[2]; [20],0.8641
same,Difference,[2]; [21],−0.36
O=C(O)CCCCC1CCSS1 (stereo not shown) [Lipoic acid],Difference,[1]; [22],−0.11
same,Cholesterol-free,[1]; [11],0.8613
same,Complete,[1]; [12],0.7528
same,Cholesterol-free media + simvastatin (0.04 μM),[2]; [5],0.7443
same,Complete Media,[2]; [6],1.012
same,Difference,[2]; [7],0.27
CC[C@H](C)C(=O)O[C@H]1C[C@@H](C)C=C2C=C[C@H](C)[C@H](CC[C@@H]3C[C@@H](O)CC(=O)O3)[C@H]21 [Lovastatin],Difference,[1]; [22],−0.11
same,Cholesterol-free,[1]; [11],0.7089
same,Complete,[1]; [12],0.603
same,Cholesterol-free media + simvastatin (0.04 μM),[2]; [5],0.5184
same,Complete Media,[2]; [6],0.7992
same,Difference,[2]; [7],0.28
C#CCC(Cc1cnc2nc(N)nc(N)c2n1)c1ccc(C(=O)N[C@@H](CCC(=O)O)C(=O)O)cc1 (stereo partly shown) [Pralatrexate],Difference,[1]; [24],0.03
same,Cholesterol-free,[1]; [13],0.04874
same,Complete,[1]; [14],0.07794
same,Cholesterol-free media + simvastatin (0.04 μM),[2]; [5],0.194
same,Complete Media,[2]; [6],0.0957
same,Difference,[2]; [21],−0.10
Cc1c(C(=O)Nc2ccc(N3C[C@@H](C)O[C@@H](C)C3)nc2)cccc1-c1ccc(OC(F)(F)F)cc1 [Sonidegib],Cholesterol-free,[1]; [13],0.6523
same,Complete,[1]; [14],0.8188
same,Difference,[1]; [15],0.17
same,Cholesterol-free media + simvastatin (0.04 μM),[2]; [9],1.12
same,Complete Media,[2]; [10],1.188
same,Difference,[2]; [7],0.07
COc1cc(C=O)ccc1O [Vanillin],Cholesterol-free,[1]; [13],0.7241
same,Complete,[1]; [14],0.863
same,Difference,[1]; [15],0.14
same,Cholesterol-free media + simvastatin (0.04 μM),[2]; [16],1.042
same,Complete Media,[2]; [17],1.057
same,Difference,[2]; [18],0.02
